Source: publication PMC5314971 (Bioorganic & medicinal chemistry letters, 2017)

What was measured:
B16F10 [1] = assay: antiproliferation study, B16F10 melanoma cell line
[2] = test system: acetylated tubulin in B16F10 cells; assay: western blot for accumulation of acetylated tubulin in B16F10 cells; type: cell-based
B16F10 [3] = assay: verapamil; details: B16F10, verapamil at 100 µM, data not shown
A375 = assay: antiproliferation study, A375 melanoma cell line; details: SAHA as control HDACi
HDAC1 = HDAC1 (Homo sapiens, UniProt Q13547); assay: cell-free HDAC isoform inhibition assay, HDAC1
Chain of HDAC1 (Q13547 whole entry, species assumed, canonical isoform): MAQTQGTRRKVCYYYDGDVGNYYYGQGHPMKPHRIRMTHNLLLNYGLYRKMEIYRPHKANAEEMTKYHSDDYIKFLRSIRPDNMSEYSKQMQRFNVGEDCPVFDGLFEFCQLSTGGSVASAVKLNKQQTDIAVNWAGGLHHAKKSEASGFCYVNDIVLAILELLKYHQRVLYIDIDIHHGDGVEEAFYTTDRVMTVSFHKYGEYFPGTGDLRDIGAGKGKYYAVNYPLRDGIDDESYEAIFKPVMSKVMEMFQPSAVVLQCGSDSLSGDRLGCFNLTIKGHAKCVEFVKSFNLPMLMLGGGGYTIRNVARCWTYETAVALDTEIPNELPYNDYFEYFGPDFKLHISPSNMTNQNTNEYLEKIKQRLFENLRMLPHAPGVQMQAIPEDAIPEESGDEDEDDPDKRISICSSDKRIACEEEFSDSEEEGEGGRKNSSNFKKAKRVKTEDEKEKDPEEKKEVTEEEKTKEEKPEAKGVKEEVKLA

[4] = phase II clinical trial; ref 3a; cited from earlier work
[5] = increasing drug concentrations (5–50 µM)

Structure (SMILES): CCN(CC)CCNC(=O)c1ccc(C(=O)ONC(=O)CCCCCn2cc(-c3ccc4cc(OC)ccc4c3)nn2)cc1 [compound 14]
- growth inhibitory effect compared with compound 10a (B16F10 [1]; B16F10, at 50 µM (Fig. 4)): much more potent than compound 10a
- growth inhibitory effect compared with compound 10a (B16F10 [1]; B16F10, dosed at 25 µM (Fig. 4)): same level of potency as compound 10a
- accumulation of acetylated tubulin [2, 5]: increase in the level of acetylated tubulin in a concentration dependent manner

Structure (SMILES): CCN(CC)CCNC(=O)c1ccc(-c2cn(CCCCCCC(=O)NO)nn2)cc1 [10a]
- effect of verapamil co-treatment on cytotoxic effect (B16F10 [3]): did not improve the cytotoxic effect
- fold less active relative to SAHA against B16F10 (B16F10 [1]; SAHA as control HDACi): about 3 fold
- accumulation of acetylated tubulin [2, 5]: gave a similar effect
- fold less active relative to SAHA against A375 (A375): ~6 fold
- selectivity for HDAC1 compared to HDAC6 (HDAC1): about four-fold

Structure (SMILES): CCN(CC)CCNC(=O)c1ccc(-c2cn(CCCCCC(=O)NO)nn2)cn1 [11a]
- selectivity for HDAC1 compared to HDAC6 (HDAC1): almost indistinguishable

Structure (SMILES): COc1ccc2cc(-c3cn(CCCCCC(=O)NO)nn3)ccc2c1 [7u, reference compound]
- accumulation of acetylated tubulin ([2]; 20 µM): significant accumulation of acetylated tubulin

Structure (SMILES): CCN(CC)CCNC(=O)c1ccc(I)cc1 [N-(2-(diethylamino)ethyl)-4-iodobenzamide]
- toxicity to the patients [4]: little toxicity

Structure (SMILES): O=C(CCCCCCC(=O)Nc1ccccc1)NO [SAHA, reference compound]
- accumulation of acetylated tubulin ([2]; 20 µM): significant accumulation of acetylated tubulin

Structure (SMILES): CCN(CC)CCNC(=O)c1ccc(-c2cn(CCCCCCC(=O)NO)nn2)cn1 [11b]
- effect of verapamil co-treatment on cytotoxic effect (B16F10 [3]): did not improve the cytotoxic effect
